In article PMC5671735, “The Effect of CM082, an Oral Tyrosine Kinase Inhibitor, on Experimental Choroidal Neovascularization in Rats” (Journal of Ophthalmology, 2017):
Several values for one entry are separate records, joined by “and”; a condition that tells them apart may be missing. Identical values can stand only once.

What was measured:
[1] = LC-MS/MS concentrations of CM082 and its metabolites in plasma and ocular tissues after oral CM082; type: in vivo, Brown Norway (BN) rats
Description: (§1) To assess the CM082 distribution and the inhibitory effects of CM082 on CNV development, the 70 rats were randomly divided into 2 groups: 10 rats for evaluating the CNV rat model and to detect the distribution of CM082 and its metabolites and 60 rats for assessing the effects of CM082 on the experimental CNV. CM082 was administered orally at dose of 10 mg/kg/d or 30 mg/kg/d, while the vehicle ([…]) was used as a negative control.
Liquid chromatography-tandem mass spectrometry (LC-MS/MS) was employed to detect the concentrations of CM082 and its metabolites (X-297 (C22H24FN5O3) and X-471 (C23H28FN5O4)) in the plasma and ocular tissues. An API-4000 triple-quadrupole mass spectrometer (AB Sciex, Framingham, MA, USA) coupled with a Shimadzu liquid chromatography system (Shimadzu Cooperation, Kyoto, Japan) was used for the analysis. CM082, its metabolites, and tolbutamide were dissolved in DMSO to generate 1.0 mg/ml stock solutions stored at 4°C. A total of 200 μl of the tolbutamide stock solution was dissolved in acetonitrile to produce internal-standard working solutions. The plasma and ocular tissue samples were analyzed along with the standard and quality-control samples. The data were analyzed with Analyst 1.6.1 (AB Sciex, Framingham, MA, USA).
Ten BN rats were photocoagulated in the oculus dexter (OD) to build the CNV rat model. Histological examination was performed at day 21, while FFA was conducted at days 14 and 21 to ensure that the CNV model was established successfully and to provide evidence that neovascularization was induced (Figures 1(a), 1(b), and 1(c)). After modeling CNV successfully, to investigate whether CM082 and its metabolites (X-297 and X-471) can reach the retina effectively, the rest of the nine rats were orally treated with CM082 at 10 mg/kg/d for 9 days, starting from day 22. […] Two days after FFA, the rats were sacrificed, and we determined the concentrations of CM082 in the plasma (ng/ml) and the ocular tissues (ng/g) 2 h after CM082 treatment. The concentrations of CM082 in the plasma, the oculus sinister (OS), and the OD were 196.87 ± 24.38 ng/ml, 172.74 ± 20.83 ng/g, and 172.97 ± 18.33 ng/g, respectively. The corresponding concentrations of X-297 were 34.42 ± 3.86 ng/ml, 31.28 ± 4.00 ng/g, and 31.11 ± 3.56 ng/g, while those of X-471 were 32.04 ± 4.57 ng/ml, 16.68 ± 2.18 ng/g, and 15.82 ± 1.85 ng/g.

[2] = test system: laser-induced CNV rat model; experiment: Fundus fluorescence angiography (FFA) of fluorescein leakage in laser-induced CNV; type: in vivo, Brown Norway (BN) rats
Description: (§2) Laser photocoagulation-induced CNV was established as previously described. Preoperative preparation included general anesthesia, which was induced with an intraperitoneal injection of 1% pentobarbital sodium (40 mg/kg; Sigma-Aldrich, St. Louis, MO, USA). The rats' pupils were dilated using 0.5% tropicamide and 0.5% phenylephrine (Mydrin-P, Santen Pharmaceutical Co., Osaka, Japan). Surface anesthesia was induced with 0.5% Alcaine (Alcon (China) Ophthalmic Product Co., Beijing, China). Bruch's membrane of the right eye was injured using the following laser parameters: 532 nm wavelength, 360 mW intensity, 0.1 s duration, and 50 μm spot size. Eight to ten laser spots were applied to the major retinal vessels at approximately the same distance to the optic disc. A laser-induced cavitation bubble or slight hemorrhage indicated a rupture in Bruch's membrane. Fundus photography was taken immediately after laser photocoagulation to check for fundus hemorrhage.
as §1
The preoperative preparations were the same as those used to establish the CNV model. Approximately 0.2 ml of 10% sodium fluorescein (Alcon Japan, Tokyo, Japan) was injected intraperitoneally, and the leakage of fluorescein from the laser lesions was monitored dynamically for up to 15 min. The images were obtained using confocal scanning laser ophthalmoscopy (Spectralis, Heidelberg Engineering Inc., Heidelberg, Germany) and analyzed using ImageJ software (National Institutes of Health, Bethesda, MD, USA). The signal intensities (brightness of the CNV lesions) defined the degree of leakage. As a reference, the intensity of the capillaries in the normal regions was defined as 0, whereas the intensity at the major branch of the retinal vein was defined as 1.
To determine whether CM082 inhibited CNV progression, 60 BN rats were divided into 4 groups and randomized by weight, with 10 rats receiving CM082 at 10 mg/kg/d, 10 receiving CM082 at 30 mg/kg/d, 20 receiving vehicle treatment, and 20 undergoing the RPE-choroid-sclera preparation. […] The CNV analysis was performed on day 14 or 21 after laser photocoagulation using FFA, histological examinations, and immunohistochemistry.

[3] = test system: laser-induced CNV rat model; experiment: CNV area in RPE-choroid-sclera flat mounts after FITC-dextran perfusion; type: in vivo, Brown Norway (BN) rats
Description: as §2
To assess the inhibitory effects of CM082 on CNV development, the photocoagulated rats were randomly divided into 2 groups: (1) a CM082-treated group (n = 9) and (2) a vehicle-treated group (n = 9). CM082 (30 mg/kg/d or 5 ml/kg/d) or vehicle (5 ml/kg/d) was administered beginning on the 7th day after laser injury. On the 7th, 14th, or 21st day, 3 rats from each group were anesthetized, and the left ventricle of the heart was perfused with 2 ml of PBS containing 50 mg of fluorescein isothiocyanate- (FITC-) dextran (2 × 10^6 average molecular weight; Sigma-Aldrich). The enucleated eyes were fixed in 4% paraformaldehyde for 1 h. […] The CNV area was measured by ImageJ software (National Institutes of Health, Bethesda, MD, USA).
To further confirm the reverse effect of CM082 at a dose of 30 mg/kg/d on the CNV area, we prepared RPE-choroid-sclera by perfusion with FITC-dextran. […] In addition to comparing the CM082-treated group to the vehicle-treated group, we analyzed the CNV area in the CM082-treated group at different time points.

[4] = test system: laser-induced CNV rat model; experiment: CNV histology (HE staining); type: in vivo, Brown Norway (BN) rats
Description: as §2
The rats were euthanized after the FFA examination on day 14 or 21 after laser injury, and a histological examination was performed on 4 rats per group at each time point. The animals were enucleated, and the eyes were fixed in paraformaldehyde for 24 h (the eyelashes were also removed). After fixation, the eyes were embedded in paraffin and serially sectioned at 5 μm. […]

[5] = test system: phosphorylated VEGFR-2 (p-VEGFR-2); experiment: Immunohistochemistry of phosphorylated VEGFR-2 in CNV eyes; type: in vivo, Brown Norway (BN) rats; settings: CM082 30 mg/kg oral, 14 and 21 days after laser injury, vs vehicle
Description: The rats were euthanized after the FFA examination on day 14 or 21 after laser injury, and a histological examination was performed on 4 rats per group at each time point. The animals were enucleated, and the eyes were fixed in paraformaldehyde for 24 h (the eyelashes were also removed). After fixation, the eyes were embedded in paraffin and serially sectioned at 5 μm. Routine hematoxylin-eosin (HE) staining was performed on selected slides, and the serial sections were examined using a light microscope. Immunohistochemical staining was performed on the histological sections from the CM082-treated and vehicle-treated groups 14 and 21 days after laser administration. Routine immunolocalization procedures were used to dewax and rehydrate the slides. The slides were incubated with 3% hydrogen peroxidase for 25 min and washed in phosphate-buffered saline (PBS) for 5 min. The slides were then blocked in goat serum for 15 min. Next, the sections were incubated with a phosphorylated anti-VEGFR-2 antibody (Nanjing Bioworld Biotech Co., Jiangsu, China) overnight at 4°C, followed by incubation with Goat Anti-Rabbit/Rat IgG antibody (Dako Denmark A/S, Denmark) for 30 min. The sections were subsequently incubated with horseradish peroxidase-conjugated streptavidin (Thermo Fisher Scientific China, Shanghai, China) for 30 min and then counterstained with hematoxylin for 2 min. […]

[6] = type: in vivo; settings: oral CM082 10 or 30 mg/kg/d
Text: […] BN rats were used in this study.

[7] = test system: oxidative-induced retinopathy; settings: CM082-treated group compared to control group; no reference given; cited from earlier work
[8] = test system: CNV model produced by subretinal injection of Matrigel; settings: no reference given; cited from earlier work

SMILES: Cc1[nH]c(/C=C2\C(=O)Nc3ccc(F)cc32)c(C)c1C(=O)N[C@H]1CCN(C(=O)N(C)C)C1 [CM082]
- distribution within the ocular tissues ([1]; 2 h after CM082 administration, oral 10 mg/kg/d): highest in the retina-sclera
- concentration in the oculus sinister (OS) ([1]; CM082 oral 10 mg/kg/d for 9 days, 2 h after CM082 treatment, n = 9, eye without laser injury): 172.74 ± 20.83 ng/g
- concentration in the oculus dexter (OD) ([1]; CM082 oral 10 mg/kg/d for 9 days, 2 h after CM082 treatment, n = 9, photocoagulated eye): 172.97 ± 18.33 ng/g
- concentration in the plasma ([1]; CM082 oral 10 mg/kg/d for 9 days, 2 h after CM082 treatment, n = 9, 10 mg/kg/day): 196.87 ± 73.13 ng/mL and 196.87 ± 24.38 ng/mL
- total concentration in the eyes ([1]; oral CM082, abstract value): 172.86 ± 57.11 ng/g
- FFA leakage signal intensity ([2]; 10 mg/kg/d group, day 7 after laser injury, before CM082 administration (baseline), scale 0 = capillaries, 1 = retinal vein, vehicle 0.81 ± 0.03): 0.78 ± 0.04
- FFA leakage signal intensity ([2]; 30 mg/kg/d group, day 7 after photocoagulation, before dosing (baseline), vehicle 0.81 ± 0.02, p > 0.05): 0.77 ± 0.04
- FFA leakage signal intensity ([2]; CM082 10 mg/kg/d oral from day 7, day 21 after laser injury (14 days after dosing), vehicle 0.82 ± 0.03, p < 0.01): 0.66 ± 0.05
- FFA fluorescein leakage vs days 14 and 21 ([2]; CM082 10 mg/kg/d oral started day 22 after laser, FFA after 7 days of administration (day 28), p > 0.05): no significant reduction in fluorescein leakage
- FFA leakage signal intensity ([2]; CM082 30 mg/kg/d oral from day 7, day 14, vehicle 0.83 ± 0.03, p < 0.001): 0.42 ± 0.03
- FFA leakage signal intensity ([2]; CM082 30 mg/kg/d oral from day 7, day 21, vehicle 0.86 ± 0.02, p < 0.001): 0.35 ± 0.05
- area of the CNV lesions ([3]; 30 mg/kg/d group, 7 days after laser photocoagulation, before dosing (baseline), vehicle 4.84 ± 0.72): 4.45 ± 0.90 μm^2 × 10^4
- area of the CNV lesions ([3]; CM082 30 mg/kg/d oral from day 7, 14 days after laser injury, vehicle 9.60 ± 1.68): 1.48 ± 0.24 μm^2 × 10^4
- area of the CNV lesions ([3]; CM082 30 mg/kg/d oral from day 7, 21 days after laser injury, vehicle 19.61): 1.03 ± 0.27 μm^2 × 10^4
- CNV lesion size by histology (HE) ([4]; CM082 10 mg/kg/d oral, day 21, vs vehicle): smaller
- edema, depigmentation, and CNV areas by histology (HE) ([4]; CM082 30 mg/kg/d oral, 14 and 21 days after laser photocoagulation, vs vehicle): significantly decreased
- p-VEGFR-2 immunostaining [5]: reduced the aggregation of p-VEGFR-2 in the RPE and OPL
- tolerability during treatment [6]: no behavioral change, death, or body weight loss
- inhibition rate [7]: 71.1%
- areas of CNV lesions [8]: reduced the areas of CNV lesions
